Reference: patent publication US20120088803A1, “CONTROL AGENT FOR SOFT ROT AND CONTROL METHOD FOR THE SAME” (Ishihara Sangyo Kaisha, Ltd, priority 2009, published 2012)
Several values for one entry are separate records, joined by “and”; a condition that tells them apart may be missing. Identical values can stand only once.

Test system: Chinese cabbage soft rot
Assay: Test for disease control of Chinese cabbage, field (Example 2)
Format: in vivo, Erwinia carotovora
Design: key to Disease incidence rate: % of examined plants that are diseased; key to Disease control value: (1 − severity treated/severity untreated) × 100; key to Disease severity: Σ(diseased plants per class × index 0-4)/(plants × 4) × 100
Conditions: 250 g ai/10 a, 50 days
From the text: (Disease incidence rate)=[(number of diseased plants)/(number of plants examined)]*100
(Disease severity)={S [(number of diseased plants in each class into which the plants are classified according to the degree of disease)*(disease index)]/[(number of plants examined)*4]}*100
(Disease control value)={1-[(Disease severity in treated plot)/(Disease severity in untreated plot)]}*100
Incidentally, the evaluation criteria for the disease index are as follows. • (Disease index) • 0: No lesion • 1: Lesions appear only in part of outer leaves (shipment can be made). • 2: Lesions appear in outer leaves and part of head leaves (the damaged part is removed and shipment as a small size plant can be made, rated Grade B). • 3: Lesions appear in most head leaves or more (shipment cannot be made). • 4: Lesions appear in the entire plant and the plant dies.
Preparation was performed using 500 g/L of • 3-chloro-N-(3-chloro-5-trifluoromethyl-2-pyridyl)-alpha,alpha,alpha-trifluoro-2,6-dinit ro-p-toluidine (fluazinam, Frowncide SC (trade name), manufactured by Ishihara Sangyo Kaisha, Ltd.) such that the amount of the active ingredient was 250 g ai/10 a (500 mL product/10 a), and the amount of dilution water was 150 L/10 a.
A mulch-sheet for agricultural use was spreaded on soil, and planting holes for settlement (diameter: about 5 cm) were made, and then, the spray solution prepared in the above was sprayed onto the planting holes such that the spraying amount was 0.25 g/m^2 (150 L/10 a), followed by air-drying. Then, seedlings of Chinese cabbage (cultivar: Yumebuki) grown for 4 weeks in a cell tray (128 holes/nursery box) were planted such that 34 to 40 seedlings were planted in one test plot having an area of 4.8 m^2 with three replications.
The degree of disease incidence was examined for all the plants in each test plot 50 days after the start of the test, and the disease severity and the disease control value were evaluated. Incidentally, the disease severity and the disease control value were obtained in the same manner as described above.

[1] = 150 L/10 a onto planting holes, Yumebuki, Average of replications

In the case of `O=[N+]([O-])c1cc(C(F)(F)F)c(Cl)c([N+](=O)[O-])c1Nc1ncc(C(F)(F)F)cc1Cl` [Fluazinam, 3-chloro-N-(3-chloro-5-trifluoromethyl-2-pyridyl)-alpha,alpha,alpha-trifluoro-2,6-dinit ro-p-toluidine], the Disease incidence rate [1] is reported as 45.4, the Disease severity [1] is reported as 16.4 and the Disease severity (150 L/10 a onto planting holes, Yumebuki, single replications I-III) is reported as 19.4 and 13.1 and 16.7. The Disease control value (150 L/10 a onto planting holes, Yumebuki, vs untreated plot) was 66.4 and the Disease incidence rate (150 L/10 a sprayed onto planting holes of mulch-sheet, cultivar Yumebuki, single replications I-III) was 55.0 and 37.5 and 43.6.
